Source: patent publication US9415055B2, “Cyclic amines” (H. Lundbeck A/S, priority 2012, dated 2016)

Molecular target: P2X7 receptor (Homo sapiens (Human), UniProt Q99572)
Experiment: P2X7 FLIPR assay: antagonism of BzATP response in 293 HEK cells stably expressing P2X7 receptor
Type: cell-based
Details: FLIPR fluorescence (Fluo-4), agonist BzATP, 293 HEK cells stably transfected with P2X7 receptor
Description: Cells were plated to cell density of approximately 15,000 cells/well in 384-well assay plates (50 μl/well) with 1.5% low serum media (DMEM, 1.5% BCS, 1% L-glut (2 mM), 1% P/S).
Cells were plated to cell density of approximately 15,000 cells/well in 384-well assay plates (50 μl/well) with 1.5% low serum media (DMEM, 1.5% FBS, 1% L-glut (2 mM), 10 mM HEPES, 1% P/S). Cells were plated 24 hours prior to assay. Cells expressing human, rat or mouse P2X7 receptor were assayed in the following manner.
Fluo-4 NW dye mix (Molecular Probes, Inc., Eugene, Oreg., USA) was prepared in buffer (see manufacturer's instructions). Cell plates were removed from the 37° C. incubator, the media discarded and then 30 μL of dye was added to each well. Plates were placed in the 37° C., non-CO2 incubator for 30 minutes and then room temperature for 30 minutes.
Compound mixtures (A) were added to assay plates containing cells and placed at room temperature for 30 minutes, then BzATP (B) was added. Fluorescence was read using the Tetra FLIPR® (Molecular Devices, Inc., Sunnyvale, Calif., USA) and IC50 values were calculated by standard methods to determine antagonist activity.

P2X7 receptor, sequence (Q99572 whole entry): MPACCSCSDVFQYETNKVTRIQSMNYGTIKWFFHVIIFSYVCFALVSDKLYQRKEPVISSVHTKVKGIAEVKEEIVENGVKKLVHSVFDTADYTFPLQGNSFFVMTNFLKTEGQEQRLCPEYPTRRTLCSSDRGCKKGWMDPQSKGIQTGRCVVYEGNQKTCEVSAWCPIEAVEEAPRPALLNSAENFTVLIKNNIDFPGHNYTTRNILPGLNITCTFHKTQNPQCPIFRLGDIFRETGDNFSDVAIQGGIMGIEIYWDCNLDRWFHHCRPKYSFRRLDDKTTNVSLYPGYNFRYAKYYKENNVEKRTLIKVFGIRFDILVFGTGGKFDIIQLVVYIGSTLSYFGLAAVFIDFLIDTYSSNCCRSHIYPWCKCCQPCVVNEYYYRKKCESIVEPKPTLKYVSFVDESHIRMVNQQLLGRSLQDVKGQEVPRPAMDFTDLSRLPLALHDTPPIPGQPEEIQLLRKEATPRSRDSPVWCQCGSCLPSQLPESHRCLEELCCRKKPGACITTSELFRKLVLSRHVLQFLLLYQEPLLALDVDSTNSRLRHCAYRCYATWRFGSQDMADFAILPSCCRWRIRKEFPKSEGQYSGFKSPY

IC50 [µM]	SMILES
0.0099	O=C(NCC(c1cnc(C(F)(F)F)nc1)N1CCOCC1)c1cccc(C(F)(F)F)c1Cl (single isomer, unassigned; (-)) [(−)2-chloro-N-[2-morpholino-2-[2-(trifluoromethyl)pyrimidin-] [(−)2-Chloro-N-[2-morpholino-2-[2-(trifluoromethyl)pyrimidin-5-yl]ethyl]-3-(trifluoromethyl)benzamide]
0.0028	O=C(NCC(c1cnc(C(F)(F)F)nc1)N1CCC(F)(F)CC1)c1ccccc1Cl (centres unmarked) [2-chloro-N-(2-(4,4-difluoropiperidin-1-yl)-2-(2-(trifluoromethyl)pyrimidin-5-yl)ethyl)benzamide]
0.0048	O=C(NCC(c1cnc(C(F)(F)F)nc1)N1CCOCC1)c1cccc(Cl)c1Cl (single isomer, unassigned; (+)) [(+)2,3-dichloro-N-[2-morpholino-2-[2-(trifluoromethyl)pyrimi] [(+)2,3-Dichloro-N-[2-morpholino-2-[2-(trifluoromethyl)pyrimidin-5-yl]ethyl]benzamide]
0.038	O=C(NCC(c1cnc(C(F)F)nc1)N1CCOCC1)c1cccc(F)c1Cl (single isomer, unassigned; (-)) [(−)2-chloro-N-[2-[2-(difluoromethyl)pyrimidin-5-yl]-2-morpho] [(−)2-chloro-3-fluoro-N-(2-(2-(difluoromethyl)pyrimidin-5-yl)-2-morpholinoethyl)benzamide]
0.0039	O=C(NCC(c1ccc(Cl)nc1)N1CCOCC1)c1cccc(Cl)c1Cl (centres unmarked) [2,3-Dichloro-N-[2-(6-chloro-3-pyridyl)-2-morpholino-ethyl]benzamide]
0.028	O=C(NCC(c1cncnc1)N1CCOCC1)c1cccc(Cl)c1Cl (centres unmarked) [2,3-Dichloro-N-(2-morpholino-2-pyrimidin-5-yl-ethyl)benzamide]
0.0036	COc1cccc(C(=O)NCC(c2cnc(C(F)(F)F)nc2)N2CCC(F)(F)CC2)c1Cl (single isomer, unassigned; (+)) [(+)2-chloro-N-[2-(4,4-difluoro-1-piperidyl)-2-[2-(trifluorom] [(+)2-chloro-N-(2-(4,4-difluoropiperidin-1-yl)-2-(2-(trifluoromethyl)pyrimidin-5-yl)ethyl)-3-methoxybenzamide]
0.02	Cc1cccc(C(=O)NCC(c2ccc(F)cc2)N2CCOCC2)c1C (centres unmarked) [N-[2-(4-Fluoro-phenyl)-2-morpholin-4-yl-ethyl]-2,3-dimethyl-benzamide]
0.0039	O=C(NCC(c1cnc(C(F)F)nc1)N1CCOCC1)c1cccc(Cl)c1Cl (single isomer, unassigned; (+)) [(+)2,3-dichloro-N-[2-[2-(difluoromethyl)pyrimidin-5-yl]-2-mo] [(+)2,3-dichloro-N-(2-(2-(difluoromethyl)pyrimidin-5-yl)-2-morpholinoethyl)benzamide]
0.0035	O=C(NCC(c1cnc(C2CC2)nc1)N1CCC(F)(F)CC1)c1cccc(Cl)c1Cl (single isomer, unassigned; (-)) [(−)2,3-dichloro-N-[2-(2-cyclopropylpyrimidin-5-yl)-2-(4,4-di] [(−)2,3-dichloro-N-(2-(2-cyclopropylpyrimidin-5-yl)-2-(4,4-difluoropiperidin-1-yl)ethyl)benzamide]
0.015	O=C(NCC(c1cnc(C(F)(F)F)nc1)N1CCC(F)CC1)c1ccccc1Cl (single isomer, unassigned; (+)) [(+)2-chloro-N-[2-(4-fluoro-1-piperidyl)-2-[2-(trifluoromethy] [(+)2-chloro-N-(2-(4-fluoropiperidin-1-yl)-2-(2-(trifluoromethyl)pyrimidin-5-yl)ethyl)benzamide]
0.00062	O=C(NC[C@H](c1ccc(Cl)cc1)N1CCOCC1)c1cccc(Cl)c1Cl [2,3-Dichloro-N-[(S)-2-(4-chloro-phenyl)-2-morpholin-4-yl-ethyl]benzamide]
0.0082	O=C(NCC(c1ccc(C2CC2)nc1)N1CCOCC1)c1cccc(Cl)c1Cl (centres unmarked) [2,3-Dichloro-N-[2-(6-cyclopropyl-pyridin-3-yl)-2-morpholin-4-yl-ethyl]-benzamide]
0.012	CCc1ncc(C(CNC(=O)c2ccccc2Cl)N2CCC(F)(F)CC2)cn1 (single isomer, unassigned; (+)) [(+)2-chloro-N-[2-(4,4-difluoro-1-piperidyl)-2-(2-ethylpyrimi] [(+)2-chloro-N-(2-(4,4-difluoropiperidin-1-yl)-2-(2-ethylpyrimidin-5-yl)ethyl)benzamide]
0.013	O=C(NCC(c1cnc(C(F)(F)F)nc1)N1CCC(F)CC1)c1ccccc1Cl (single isomer, unassigned; (-)) [(−)2-chloro-N-[2-(4-fluoro-1-piperidyl)-2-[2-(trifluoromethy] [(−)2-chloro-N-(2-(4-fluoropiperidin-1-yl)-2-(2-(trifluoromethyl)pyrimidin-5-yl)ethyl)benzamide]
0.044	O=C(NCC(c1cnc(C(F)(F)F)nc1)N1CCOCC1)c1ccccc1F (single isomer, unassigned; (-)) [(−)2-Fluoro-N-[2-morpholino-2-[2-(trifluoromethyl)pyrimidin-5-yl]ethyl]benzamide]
0.015	O=C(NCC(c1cnc(C(F)F)nc1)N1CCOCC1)c1ccccc1Cl (single isomer, unassigned; (-)) [(−)2-chloro-N-[2-[2-(difluoromethyl)pyrimidin-5-yl]-2-morpho] [(−)2-chloro-N-(2-(2-(difluoromethyl)pyrimidin-5-yl)-2-morpholinoethyl)benzamide]
0.0049	CCc1ncc(C(CNC(=O)c2cccc(Cl)c2Cl)N2CCC(F)(F)CC2)cn1 (single isomer, unassigned; (-)) [(−)2,3-dichloro-N-[2-(4,4-difluoro-1-piperidyl)-2-(2-ethylpy] [(−)2,3-dichloro-N-(2-(4,4-difluoropiperidin-1-yl)-2-(2-ethylpyrimidin-5-yl)ethyl)benzamide]
0.0049	O=C(NCC(c1cnc(C(F)(F)F)nc1)N1CCC(F)(F)CC1)c1c(Cl)ccc(F)c1Cl (single isomer, unassigned; (-)) [(−)2,6-dichloro-N-[2-(4,4-difluoro-1-piperidyl)-2-[2-(triflu] [(−)2,6-dichloro-5-fluoro-N-(2-(4,4-difluoropiperidin-1-yl)-2-(2-(trifluoromethyl)pyrimidin-5-yl)ethyl)benzamide]
0.74	Cc1ncc(C(CNC(=O)c2c(Cl)cccc2Cl)N2CCCOCC2)cn1 (centres unmarked) [2,6-dichloro-N-(2-(2-methylpyrimidin-5-yl)-2-(1,4-oxazepan-4-yl)ethyl)benzamide]
0.05	Cc1ncc(C(CNC(=O)c2ccccc2Cl)N2CCC(F)CC2)cn1 (single isomer, unassigned; (+)) [(+)2-chloro-N-[2-(4-fluoro-1-piperidyl)-2-(2-methylpyrimidin] [(+)2-chloro-N-(2-(4-fluoropiperidin-1-yl)-2-(2-methylpyrimidin-5-yl)ethyl)benzamide]
3.2	Cc1ncc(C(CNC(=O)c2cccc(Cl)c2Cl)N2CC3CCC2C3)cn1 (centres unmarked) [N-(2-(2-azabicyclo[2.2.1]heptan-2-yl)-2-(2-methylpyrimidin-5-yl)ethyl)-2,3-dichlorobenzamide]

SMILES	IC50 [µM]
Cc1ncc(C(CNC(=O)c2cccc(Cl)c2Cl)N2CCCCC2C(C)C)cn1 (centres unmarked) [2,3-dichloro-N-(2-(2-isopropylpiperidin-1-yl)-2-(2-methylpyrimidin-5-yl)ethyl)benzamide]	1.9
